By EC50 is commonly meant the concentration that produces a half-maximal response. In general, IC50 refers to the concentration needed to halve the response being measured. A higher IC50 goes with a need for much substance.

Assay [1] addresses T1, preformed Aβ42 fibrils (Homo sapiens, UniProt P05067).
T1 construct: The Aβ42 peptide was produced by Bachem AG; purchased Bachem AG
The assay can be described thus: Destabilization assay (ThT fluorescence): destabilization of preformed Aβ42 fibrils. Format: biochemical. The conditions noted are these: for EC50: fibrils preformed from 25 μM Aβ42 (24 h, 37 °C), further 24 h at 37 °C with compound, ThT fluorescence. The protocol: The destabilization assay used to evaluate the activities of the polyphenolic compounds towards the destabilization of preformed fibrils was performed as described by Ono et al.. Briefly, a reaction mixture containing 25 μM Aβ42 and 50 mM phosphate buffer (pH 7.5 and 100 mM NaCl) was incubated on a PCR system for 24 h at 37 °C to form fibrils. All of the test compounds (i.e., C, EC, GC, EGC, P-B1, and P-B3) were initially dissolved in DMSO at concentrations of 30, 100 and 300 μM, and 1 and 3 mM, before being added to the reaction mixture to give final concentrations of 0.3, 1.0, 3.0, 10, and 30 μM, respectively. The resulting mixtures were continued the incubation of 24 h at 37 °C, and then subjected to fluorescent measurements as in the polymerization assay.
(§1) The fluorescence measurements were recorded on an Envision® 2104 Multilabel Reader (Perkin Elmer, Waltham, MA, USA), with optimized excitation and emission wavelengths of 430 (BW 24 nm) and 470 nm (BW 24 nm), respectively. The reaction mixture contained 5 μM ThT and 50 mM of glycine-NaOH buffer (pH 8.5). The IC50 and EC50 values were calculated using the GraphPad Prism 5 software. All results were expressed as the mean ± SEM, and statistical analyses were performed using the Student’s t test.

Assay [2] deals with T2, Aβ42 (Homo sapiens, UniProt P05067).
T2 construct: The Aβ42 peptide was produced by Bachem AG; purchased Bachem AG
The assay can be described thus: Polymerization assay (ThT fluorescence): inhibition of Aβ42 aggregation. It is filed as biochemical. To be noted: for IC50: 25 μM Aβ42, 1% DMSO, 50 mM phosphate buffer pH 7.5, 100 mM NaCl, ThT fluorescence. The protocol: The polymerization assay was performed as previously described in the literature. For single compounds, the reaction mixture contained 25 μM Aβ42, 0.3, 1.0, 3.0, 10, or 30 μM C, EC, GC, EGC, P-B1, or P-B3, 1% DMSO, 50 mM phosphate buffer (pH 7.5) and 100 mM NaCl. Prior to being tested, the compounds were dissolved in DMSO at concentrations of 30, 100 and 300 μM, and 1.0 and 3.0 mM, and then added to the reaction mixture to final concentrations 0.3, 1.0, 3.0, 10, and 30 μM, respectively. For the extract and its fractions, different concentration sequences were incubated in the reaction mixture. With the exception of one sequence (i.e., 3.0, 10, 30, 100 and 200 μg/mL) for Fr. Ts and another (i.e., 0.3, 1.0, 3.0, 10, 30 μg/mL) for Fr. Ps, one concentration sequence (i.e., 1.0, 3.0, 10, 30 and 100 μg/mL) was used for the extract and all of the other fractions.
as §1

Assay [3] concerns the target T2, Aβ42. Further details: method as in PMID 24727418. The conditions noted are these: earlier work of the same authors; cited from earlier work.

T2 sequence (P05067 672-713 limits assumed, species assumed): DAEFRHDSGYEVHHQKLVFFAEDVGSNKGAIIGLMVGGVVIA
T1 sequence (P05067 672-713 limits assumed, species assumed): as above

`Oc1cc(O)c2c(c1)O[C@H](c1ccc(O)c(O)c1)[C@@H](O)[C@@H]2c1c(O)cc(O)c2c1O[C@H](c1ccc(O)c(O)c1)[C@@H](O)C2` [P-B3, procyanidin B3]: the EC50 in assay [1] amounted to 5.12 ± 0.75 µM. The same compound returned an IC50 in assay [2] of 3.54 ± 0.39 µM.
With `CC(C)(C)[C@]1(O)CC2OC(=O)CC23C(=O)OC2OC(=O)[C@H](O)C231` (stereo partly drawn) [bilobalide], the “activity towards Aβ42 aggregation in vitro (in words)” value in assay [3] was “very little activity”.
With `Oc1cc(O)c2c(c1)O[C@H](c1cc(O)c(O)c(O)c1)[C@@H](O)C2` [GC, (−)-gallocatechin], in assay [1], the EC50 was 15.7 ± 3.19 µM. For the same compound, in assay [1] (this paper's destabilization assay), the “ability to destabilize fibrils (in words)” value is given as “least influence”. The compound further came in with an IC50 in assay [2] of 17.5 ± 0.57 µM. Also, the “inhibitory activity towards Aβ42 aggregation (in words)” value in assay [2] (this paper's polymerization assay) is given as “least influence”.
Regarding `C[C@@H]1C(=O)O[C@H]2C[C@@]34[C@H]5C[C@@H](C(C)(C)C)[C@]36[C@@H](OC(=O)[C@@H]6O)O[C@@]4(C(=O)O5)[C@]21O` [ginkgolides A, ginkgolide A], in assay [3], the “activity towards Aβ42 aggregation in vitro (in words)” value is “very little activity”.
As for `Oc1cc(O)c2c(c1)O[C@H](c1cc(O)c(O)c(O)c1)[C@H](O)C2` [EGC, (−)-epigallocatechin], the EC50 in assay [1] is 7.76 ± 0.94 µM. In assay [2], this compound yielded an IC50 of 8.51 ± 0.96 µM.
For ginkgolide B, in assay [3], the “activity towards Aβ42 aggregation in vitro (in words)” value is “very little activity”.
Regarding `Oc1cc(O)c2c(c1)O[C@H](c1ccc(O)c(O)c1)[C@H](O)[C@H]2c1c(O)cc(O)c2c1O[C@H](c1ccc(O)c(O)c1)[C@@H](O)C2` [P-B1, Procyanidin B1], the EC50 in assay [1] worked out at 3.51 ± 0.32 µM. Further, the midpoint of inhibition in assay [2], the IC50, lay at 3.28 ± 0.46 µM.
For `Oc1cc(O)c2c(c1)O[C@H](c1ccc(O)c(O)c1)[C@H](O)C2` [EC, (−)-epicatechin] the same measures were 5.99 ± 0.6 µM and 9.44 ± 0.24 µM.
Take `Oc1cc(O)c2c(c1)O[C@H](c1ccc(O)c(O)c1)[C@@H](O)C2` [C, (+)-catechin]: in assay [1], the EC50 amounted to 5.27 ± 1.26 µM. In assay [3], the “activity towards Aβ42 aggregation in vitro (in words)” value is reported as “very little activity”. In assay [2], this compound yielded an IC50 of 14.9 ± 3.42 µM.
